Read-outs that look alike come from different tables or passages of the source.
Tests used:
papilloma on mouse skin = assay: Two-stage carcinogenesis inhibitory test on mouse skin (DMBA initiation, TPA promotion); assay type: in vivo, ICR female mice; conditions: for week after start of promotion on which the first tumor was formed: twice a week, positive control 7th week; for average number of tumors per mouse after 20 weeks: positive control 9.1; for carcinogenesis inhibitory effects (versus positive control tumors per mouse): 85 nmol test substance, after 20 weeks
Protocol: Body hair of one group of 15 ICR female mice (age 6 weeks) on their back were shaved and after 24 hours, applied (100 μg, 390 nmol) of 7,12-dimethylbenz[α]anthracene (hereinafter called “DMBA”) dissolved in acetone (0.1 ml) on their shaved skin of back as an initiation. Since one week later, each group of mice had been treated as follows:
First group: TPA (1 μg, 1.7 nmol) dissolved in acetone (0.1 ml) had been applied for 20 consecutive weeks, twice a week, as a promotion. During this treatment, additional acetone (0.1 ml) was applied on the same part one hour prior to each TPA application. (positive control group). […]
Until the 20th week since the start of a promotion by TPA application, incidence of papilloma on back of mice had been observed once a week. And the rate of mice with papilloma incidence and the average number of papilloma incidence per mouse were evaluated based on the comparison of the positive control group and the second group.
Body hair of one group of 15 ICR female mice (age 6 weeks) on their back were shaved and after 24 hours, applied ([…], 390 nmol) of 7,12-dimethylbenz[α]anthracene (hereinafter called “DMBA”) dissolved in acetone (0.1 ml) on their shaved skin of back as an initiation. Since one week later, each group of mice had been treated as follows:
Second-Fourth group: As the first group, TPA (1 μg, 1.7 nmol) dissolved in acetone (0.1 ml) had been applied for 20 consecutive weeks, twice a week, as a promotion but 85 nmol of test substance (capsanthin group) dissolved in acetone(0.1 ml) (separated by removing methanol extracts solvent), was applied one hour prior to each application instead of additional acetone. Each test substance was for Second group: Capsanthin, Third group: Capsanthin monoester, Fourth group: Capsanthin diester

[1] = system: Epstein-Barr virus early antigens in Raji cells; assay type: cell-based, human; conditions: 48 hours
Protocol: Epstein-Barr virus genome inactivating test is carried out as the first-stage screening test of anti-carcinogenesis promoter. In this test, inhibition of virus genome incident with tetradecanoylphorbolacetate (hereinafter called “TPA”) as its promoter, in a culture system of Raji cells is used as an indicator. The mentioned Raji cells are culture cells originated in species of […] lymph and holds Epstein-Barr virus genome inside. This method is not only rapid and quantitative but also available for detection of active substances in a small quantity.

Raji cells = conditions: 1000 Mol ratio/TPA (20 ng = 32 pmol/ml); 48 hours
Protocol: Measurement conditions of inactivation of Epstein-Barr virus genome incidence, using the acetone extracts and the hexane extracts, are as follows. PRMI1640 added embryonic serums and antibiotics are used as the culture liquid of Raji cells, virus latent infection-human lymphotropic bulbous cells. Under this culture conditions, the rate of natural incidence of Epstein-Barr virus of early antigens are not more than 0.1%. Raji cells, adjusted at the concentration of 1×10^6 cell/ml is cultured for 48 hours at 37° C. in the above described culture liquid after adding 4 mM of n-butyric acid, 20 ng/ml of TPA and 100 μg/ml of test substance. Then cells which generated Epstein-Barr virus early antigens are detected in the indirect immunofluorescence method using serums from epipharynx cancer patients. The ratio of positive cells calculated against the control without adding testisubstance is regarded as inactivation of virus genome incidence. In addition, the same inactivation were measured as varying the concentration of the test substance to 10, μg/ml and 1 μg/ml.

[2] = 85 nmol test substance on skin one hour prior to each TPA application
[3] = 10 Mol ratio/TPA (20 ng = 32 pmol/ml)
[4] = 100 Mol ratio/TPA (20 ng = 32 pmol/ml)
[5] = 500 Mol ratio/TPA (20 ng = 32 pmol/ml)
[6] = 1000 Mol ratio/TPA (20 ng = 32 pmol/ml)

Row | Molecule | week after start of promotion on which the first tumor was formed (papilloma on mouse skin; [2]) [week] | average number of tumors per mouse after 20 weeks (papilloma on mouse skin; [2]) | carcinogenesis inhibitory effects (versus positive control tumors per mouse) (papilloma on mouse skin) | % inhibitory rate [1, 3] [%] | % inhibitory rate [1, 4] [%] | % inhibitory rate [1, 5] [%] | % inhibitory rate [1, 6] [%] | % survival rate of Raji cells (Raji cells) [%] | mice still free from tumor formation at the end of the 20-week experiment (papilloma on mouse skin; 85 nmol test substance on skin one hour prior to each TPA application, 20 weeks) [%]
1 | capsanthin monoester | 9 | 6,5 | ~31% | 4.1 | 26.6 | 68.4 | 96.8 | 70 | –
2 | capsanthin diester | 9 | 4.5 | ~45% | 9.6 | 30.7 | 75.5 | 100 | 70 | 13.3
3 | capsorubin | – | – | – | 0 | 19.9 | 64.1 | 100 | 70 | –
4 | capsorubin diester | – | – | – | 7.2 | 28.0 | 73.9 | 100 | 70 | –
5 | CC(/C=C/C=C(C)/C=C/C(=O)[C@]1(C)C[C@@H](O)CC1(C)C)=C\C=C\C=C(C)\C=C\C=C(C)\C=C\[C@@]12O[C@@H](CC1(C)C)C[C@@]2(C)O [Capsantlim 3,6-epoxide, capsanthin 3,6-epoxide] | – | – | – | 5.4 | 20.8 | 67.2 | 100 | 70 | –
6 | cucurbitaxanthin A-3′ esters [Cucurbitaxanthin-A-3′-ester] | – | – | – | 0 | 13.8 | 61.0 | 100 | 70 | –
7 | CC1=C(/C=C/C(C)=C/C=C/C(C)=C/C=C/C=C(C)/C=C/C=C(C)/C=C/C2=C(C)CCCC2(C)C)C(C)(C)CCC1 [β-Carotene, reference compound] | – | – | – | 0 | 10.6 | 75.0 | 97.5 | 70 | –
8 | CC1=C(/C=C/C(C)=C/C=C/C(C)=C/C=C/C=C(C)/C=C/C=C(C)/C=C/C(=O)[C@]2(C)C[C@@H](O)CC2(C)C)C(C)(C)C[C@H](O)C1 [Capsanthin, capsanthin] | 7 | 7.2 | approximately 23% | 0 | 17.6 | 59.7 | 91.4 | 70 | –

— patent US20020032176A1, “CARCINOGENESIS INHIBITORS” (priority 1996, published 2002)
